These results are taken from patent US20240018123A1, “COMPOUND FOR INHIBITING OR DISINTEGRATING ANDROGEN RECEPTOR, AND PHARMACEUTICAL USE THEREOF” (KOREA RESEARCH INSTITUTE OF CHEMICAL TECHNOLOGY, priority 2020, published 2024).

Like-named read-outs stand apart in the source and are kept apart here.

One series deals with T1, Androgen receptor (AR) (Homo sapiens, UniProt P10275, T878A).
T1 construct: 5.5×10^5 LNCap cells were injected into each well of a 6-well plate; endogenous in cells; host or cells: LNCaP
T1 sequence (P10275 1-920 T878A): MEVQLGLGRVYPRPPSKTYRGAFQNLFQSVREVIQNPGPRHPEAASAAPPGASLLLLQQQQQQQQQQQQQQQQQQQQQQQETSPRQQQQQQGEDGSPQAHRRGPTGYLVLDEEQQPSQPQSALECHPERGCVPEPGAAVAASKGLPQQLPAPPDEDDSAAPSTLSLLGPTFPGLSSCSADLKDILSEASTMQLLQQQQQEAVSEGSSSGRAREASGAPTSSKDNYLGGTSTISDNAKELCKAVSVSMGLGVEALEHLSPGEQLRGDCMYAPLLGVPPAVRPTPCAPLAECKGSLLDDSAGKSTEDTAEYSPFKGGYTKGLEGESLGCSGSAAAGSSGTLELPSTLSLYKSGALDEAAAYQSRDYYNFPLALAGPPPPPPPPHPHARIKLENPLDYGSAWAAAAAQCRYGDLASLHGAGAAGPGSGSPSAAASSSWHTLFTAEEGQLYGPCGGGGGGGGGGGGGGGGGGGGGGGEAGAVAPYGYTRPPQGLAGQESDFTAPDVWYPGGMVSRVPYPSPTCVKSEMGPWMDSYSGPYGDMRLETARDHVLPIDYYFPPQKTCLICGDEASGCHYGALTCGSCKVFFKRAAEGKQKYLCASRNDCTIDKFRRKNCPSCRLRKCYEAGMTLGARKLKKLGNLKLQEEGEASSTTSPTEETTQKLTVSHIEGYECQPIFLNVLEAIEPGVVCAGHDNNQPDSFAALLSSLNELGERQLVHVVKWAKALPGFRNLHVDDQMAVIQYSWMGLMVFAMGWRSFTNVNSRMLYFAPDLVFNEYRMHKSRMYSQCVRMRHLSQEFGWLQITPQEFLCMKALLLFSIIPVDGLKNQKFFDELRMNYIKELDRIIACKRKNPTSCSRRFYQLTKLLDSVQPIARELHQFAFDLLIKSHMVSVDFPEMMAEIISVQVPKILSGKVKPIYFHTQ
Description: Assessment of AR proteolytic activity (Western blotting of LNCap cell lysates). The format is cell-based. As to conditions: 24 hours of treatment, Western blotting quantified with Image J. A digest of the protocol:
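AR degradation read by Western blot densitometry on RIPA lysates (pH 7.5, protease inhibitor cocktail). Lysates came from LNCap cells, 5.5×10^5 per well, exposed to compound for 24 hours.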

Another series has as its system LNCaP cells. Description: Cytotoxicity assessment (Cell-titer-glo cell viability), LNCaP.
Another series has as its system VCaP cells. Description: Cytotoxicity assessment (Cell-titer-glo cell viability), VCaP. To be noted: read-out: VCaP (CC50); VCaP cells, 6 days of treatment, Cell-titer-glo, vs DMSO.
Setting [1] is: read-out: LNCAP (CC50), LNCaP cells, 6 days of treatment, Cell-titer-glo, vs DMSO.

On to `CC1(C)[C@H](NC(=O)c2ccc(N3CCN(CC4CCN(C(=O)COc5ccc6nnn(C7CCC(=O)NC7=O)c(=O)c6c5)CC4)CC3)cc2)C(C)(C)[C@H]1Oc1ccc(C#N)c(Cl)c1` (some centres unmarked) [Example 13, N-((1r,3r)-3-(3-chloro-4-cyanophenoxy)-2,2,4,4-tetramethylcyclobutyl)-4-(4-((1-(2-((3-(2,6-dioxopiperidin-3-yl)-4-oxo-3,4-dihydrobenzo[d][1,2,3]triazin-6-yl)oxy)acetyl)piperidin-4-yl)methyl)piperazin-1-yl)benzamide], for which the remaining activity at 1 µM on Androgen receptor (AR) (read-out: Degradation (1 μM treated in LNCaP, % AR remaining)) was found to be 8.3%. The CC50 in the series with LNCaP cells (Homo sapiens, LNCaP, 144 h, read-out: LNCAP (CC50, μM)) worked out at 0.803 µM.

On to `CC1(C)C(NC(=O)c2ccc(OCCOCCOCCOCCOCCOCCCCNC(=O)C3CCN(c4ccc5nnn(C6CCC(=O)NC6=O)c(=O)c5c4)CC3)cc2)C(C)(C)C1Oc1ccc(C#N)c(Cl)c1` (centres unmarked) [Example 15, N-(1-(4-(((1r,3r)-3-(3-chloro-4-cyanophenoxy)-2,2,4,4-tetramethylcyclobutyl)carbamoyl)phenoxy)-3,6,9,12,15-pentaoxanonadecan-19-yl)-1-(3-(2,6-dioxopiperidin-3-yl)-4-oxo-3,4-dihydrobenzo[d][1,2,3]triazin-6-yl)piperidine-4-carboxamide], for which the “Degradation (1 μM treated in LNCaP, % AR remaining)” value on Androgen receptor (AR) came out at 13.6%. Besides, in the series with LNCaP cells (setting [1]), the CC50 was found to be 1.31 µM.

`CC1(C)C(NC(=O)c2ccc(OCCOCCOCCOCCOCCOCCCCNC(=O)C3CN(c4ccc5nnn(C6CCC(=O)NC6=O)c(=O)c5c4)C3)cc2)C(C)(C)C1Oc1ccc(C#N)c(Cl)c1` (centres unmarked) [Example 16, N-(1-(4-(((1r,3r)-3-(3-chloro-4-cyanophenoxy)-2,2,4,4-tetramethylcyclobutyl)carbamoyl)phenoxy)-3,6,9,12,15-pentaoxanonadecan-19-yl)-1-(3-(2,6-dioxopiperidin-3-yl)-4-oxo-3,4-dihydrobenzo[d][1,2,3]triazin-6-yl)azetidine-3-carboxamide]: the “Degradation (1 μM treated in LNCaP, % AR remaining)” value on Androgen receptor (AR) was 12.6%. For the same compound, in the series with LNCaP cells (setting [1]), the CC50 was found to be 1.95 µM.

As for `CC1(C)[C@H](NC(=O)c2ccc(N3CCN(C4CC5(CCN(C(=O)COc6ccc7nnn(C8CCC(=O)NC8=O)c(=O)c7c6)CC5)C4)CC3)cc2)C(C)(C)[C@H]1Oc1ccc(C#N)c(Cl)c1` (some centres unmarked) [Example 18, N-((1r,3r)-3-(3-chloro-4-cyanophenoxy)-2,2,4,4-tetramethylcyclobutyl)-4-(4-(7-(2-((3-(2,6-dioxopiperidin-3-yl)-4-oxo-3,4-dihydrobenzo[d][1,2,3]triazin-6-yl)oxy)acetyl)-7-azaspiro[3.5]nonan-2-yl)piperazin-1-yl)benzamide], the “Degradation (1 μM treated in LNCaP, % AR remaining)” value at Androgen receptor (AR) turned out to be 23%. The half-maximal cytotoxic concentration (CC50) with LNCaP cells (setting [1]) is 0.196 µM.

As for `CC1(C)[C@H](NC(=O)c2ccc(N3CCN(C4CC5(CCN(C(=O)C6CN(c7ccc8nnn(C9CCC(=O)NC9=O)c(=O)c8c7)C6)CC5)C4)CC3)cc2)C(C)(C)[C@H]1Oc1ccc(C#N)c(Cl)c1` (some centres unmarked) [Example 21, N-((1r,3r)-3-(3-chloro-4-cyanophenoxy)-2,2,4,4-tetramethylcyclobutyl)-4-(4-(7-(1-(3-(2,6-dioxopiperidin-3-yl)-4-oxo-3,4-dihydrobenzo[d][1,2,3]triazin-6-yl)azetidine-3-carbonyl)-7-azaspiro[3.5]nonan-2-yl)piperazin-1-yl)benzamide], the “Degradation (1 μM treated in LNCaP, % AR remaining)” value at Androgen receptor (AR) amounted to 21%. The CC50 in the series on LNCaP cells (setting [1]) was found to be 0.312 µM.

On to `CC1(C)C(NC(=O)c2ccc(CCN3CC4CN(C(=O)C5CCN(c6ccc7nnn(C8CCC(=O)NC8=O)c(=O)c7c6)CC5)CC4C3)cc2)C(C)(C)C1Oc1ccc(C#N)c(Cl)c1` (centres unmarked) [Example 93, N-((1r,3r)-3-(3-chloro-4-cyanophenoxy)-2,2,4,4-tetramethylcyclobutyl)-4-(2-(5-(1-(3-(2,6-dioxopiperidin-3-yl)-4-oxo-3,4-dihydrobenzo[d][1,2,3]triazin-6-yl)piperidine-4-carbonyl)hexahydropyrrolo[3,4-c]pyrrol-2(1H)-yl)ethyl)benzamide], for which the CC50 is 22.4 nM in the series with VCaP cells and 0.0515 µM with LNCaP cells (setting [1]).

On to `CC1(C)C(NC(=O)c2ccc(CCN3CC4CN(C(=O)C5CN(c6ccc7nnn(C8CCC(=O)NC8=O)c(=O)c7c6)C5)CC4C3)cc2)C(C)(C)C1Oc1ccc(C#N)c(Cl)c1` (centres unmarked) [Example 94, N-((1r,3r)-3-(3-chloro-4-cyanophenoxy)-2,2,4,4-tetramethylcyclobutyl)-4-(2-(5-(1-(3-(2,6-dioxopiperidin-3-yl)-4-oxo-3,4-dihydrobenzo[d][1,2,3]triazin-6-yl)azetidine-3-carbonyl)hexahydropyrrolo[3,4-c]pyrrol-2(1H)-yl)ethyl)benzamide], for which the cytotoxic concentration (CC50) with VCaP cells is 7.84 nM; in the series with LNCaP cells (setting [1]), 0.108 µM.

For the compound `CC1(C)C(NC(=O)c2ccc(C#CC3CCN(CC4CCN(C(=O)C5CCN(c6ccc7nnn(C8CCC(=O)NC8=O)c(=O)c7c6)CC5)CC4)CC3)cc2)C(C)(C)C1Oc1ccc(C#N)c(Cl)c1` (centres unmarked) [Example 97, N-((1r,3r)-3-(3-chloro-4-cyanophenoxy)-2,2,4,4-tetramethylcyclobutyl)-4-((1-((1-(1-(3-(2,6-dioxopiperidin-3-yl)-4-oxo-3,4-dihydrobenzo[d][1,2,3]triazin-6-yl)piperidine-4-carbonyl)piperidin-4-yl)methyl)piperidin-4-yl)ethynyl)benzamide], the CC50 with VCaP cells worked out at 2.08 nM; in the series with LNCaP cells (setting [1]), 0.0767 µM.

Regarding `CC1(C)C(NC(=O)c2ccc(-n3cc(C4CCN(C(=O)C5CCN(c6ccc7nnn(C8CCC(=O)NC8=O)c(=O)c7c6)CC5)CC4)nn3)cc2)C(C)(C)C1Oc1ccc(C#N)c(Cl)c1` (centres unmarked) [Example 102, N-((1r,3r)-3-(3-chloro-4-cyanophenoxy)-2,2,4,4-tetramethylcyclobutyl)-4-(4-(1-(1-(3-(2,6-dioxopiperidin-3-yl)-4-oxo-3,4-dihydrobenzo[d][1,2,3]triazin-6-yl)piperidine-4-carbonyl)piperidin-4-yl)-1H-1,2,3-triazol-1-yl)benzamide], the half-maximal cytotoxic concentration (CC50) in the series with VCaP cells was 5.88 nM; in the series with LNCaP cells (setting [1]) it was 0.0158 µM.

`CC1(C)C(NC(=O)c2ccc(-n3cc(CC4CCN(c5ccc6nnn(C7CCC(=O)NC7=O)c(=O)c6c5)CC4)nn3)cc2)C(C)(C)C1Oc1ccc(C#N)c(Cl)c1` (centres unmarked) [Example 103, N-((1r,3r)-3-(3-chloro-4-cyanophenoxy)-2,2,4,4-tetramethylcyclobutyl)-4-(4-((1-(3-(2,6-dioxopiperidin-3-yl)-4-oxo-3,4-dihydrobenzo[d][1,2,3]triazin-6-yl)piperidin-4-yl)methyl)-1H-1,2,3-triazol-1-yl)benzamide]: the CC50 with VCaP cells came to 12.3 nM; with LNCaP cells (setting [1]), 0.144 µM.

`CC1(C)C(NC(=O)c2ccc(-n3cc(CC4CCN(C(=O)CNc5ccc6nnn(C7CCC(=O)NC7=O)c(=O)c6c5)CC4)nn3)cc2)C(C)(C)C1Oc1ccc(C#N)c(Cl)c1` (centres unmarked) [Example 106, N-((1r,3r)-3-(3-chloro-4-cyanophenoxy)-2,2,4,4-tetramethylcyclobutyl)-4-(4-((1-((3-(2,6-dioxopiperidin-3-yl)-4-oxo-3,4-dihydrobenzo[d][1,2,3]triazin-6-yl)glycyl)piperidin-4-yl)methyl)-1H-1,2,3-triazol-1-yl)benzamide]: the CC50 in the series on VCaP cells turned out to be 11.3 nM; in the series with LNCaP cells (setting [1]), 0.0691 µM.

As to `CC1(C)C(NC(=O)c2ccc(-n3cc(C4CCN(C(=O)CNc5ccc6nnn(C7CCC(=O)NC7=O)c(=O)c6c5)CC4)nn3)cc2)C(C)(C)C1Oc1ccc(C#N)c(Cl)c1` (centres unmarked) [Example 107, N-((1r,3r)-3-(3-chloro-4-cyanophenoxy)-2,2,4,4-tetramethylcyclobutyl)-4-(4-(1-((3-(2,6-dioxopiperidin-3-yl)-4-oxo-3,4-dihydrobenzo[d][1,2,3]triazin-6-yl)glycyl)piperidin-4-yl)-1H-1,2,3-triazol-1-yl)benzamide], the results for the cytotoxic concentration (CC50) in the series on VCaP cells and in the series on LNCaP cells (setting [1]) were 3.59 nM and 0.0899 µM, respectively.

`CC1(C)C(NC(=O)c2ccc(CCN3CCN(CC4CCN(C(=O)CNc5ccc6nnn(C7CCC(=O)NC7=O)c(=O)c6c5)CC4)CC3)cc2)C(C)(C)C1Oc1ccc(C#N)c(Cl)c1` (centres unmarked) [Example 110, N-((1r,3r)-3-(3-chloro-4-cyanophenoxy)-2,2,4,4-tetramethylcyclobutyl)-4-(2-(4-((1-((3-(2,6-dioxopiperidin-3-yl)-4-oxo-3,4-dihydrobenzo[d][1,2,3]triazin-6-yl)glycyl)piperidin-4-yl)methyl)piperazin-1-yl)ethyl)benzamide]: the results for the CC50 in the series with VCaP cells and with LNCaP cells (setting [1]) were 3.65 nM and 0.456 µM, respectively.

What is called CC50 is the concentration giving 50% cytotoxicity.
